A word on the EC50: it is the concentration that produces a half-maximal response.

This passage reports EC50 and AUC(0-t) results from patent US12187704B2, “Triazine derivatives and methods of use thereof” (Ascletis BioScience Co., Ltd., priority 2022, dated 2025).

Series [1] has as its system SARS-COV-2 Omicron hCoV-19/USA/MD HP20874/2021 (B.1.1.529) strain. Description: In vitro antiviral activity against SARS-COV-2 Omicron B.1.1.529 in Calu-3 cells. It counts as cell-based. Particulars: Severe acute respiratory syndrome coronavirus 2, Calu-3, 48 h.
Series [2] deals with hCoV-19/USA/Chicago IL/2022 (BA.5.2). Briefly: In vitro antiviral activity against SARS-COV-2 BA.5.2 in Calu-3 cells. It is filed as cell-based. The conditions noted are these: Severe acute respiratory syndrome coronavirus 2, Calu-3, 48 h.
The nature of series [3]: in vivo. The conditions noted are these: rat. On the procedure:
Oral administration: The compound was administered with a volume ratio of Solutol:PEG400:Tween80:Saline=10:40:2:48 […] at a dose of 10 mg/kg. At 0.25 h, 0.5 h, 1 h, 2 h, 4 h, 8 h, 10 h, 12 h and 24 h after drug administration, blood was serially collected from the fundus venous plexus in EP tubes containing EDTA, centrifuged at 8000 rpm/min for 5 min and then the upper layer of plasma was frozen at −80° C. and stored for LC-MS/MS analysis.
Intravenous administration: the compound was administered with a volume ratio of 10% DMSO/30% PEG400/60% water (v/v/v) at a dose of 1 mg/kg). At 0.0833 h, 0.25 h, 0.5 h, 1 h, 2 h, 4 h, 8 h, 12 h and 24 h after drug administration, blood was serially collected from the fundic venous plexus in EP tubes containing EDTA, centrifuged at 8000 rpm/min for 5 min and then the upper layer of plasma was frozen at −80° C. and stored for LC-MS/MS analysis.
(§1) The pharmacokinetic parameters were calculated from the blood concentration-time data obtained from the tests using WinNonlin software.

A short description of series [4]: in vivo. Particulars: monkey, crab-eating monkeys, plasma. As for the experimental part:
Oral administration: The compounds were administered with a volume ratio of Solutol:PEG400:Tween80:Saline=10:40:2:48 (v/v/v/v) at a dose of 2 mg/kg. At 0.25 h, 0.5 h, 1 h, 2 h, 4 h, 8 h, 10 h, 12 h and 24 h after drug administration, blood was serially collected from the fundus venous plexus in EP tubes containing EDTA, centrifuged at 8000 rpm/min for 5 min and then the upper layer of plasma was frozen at −80° C. and stored for LC-MS/MS analysis.
Intravenous administration: the compound was administered with 10% DMSO/30% PEG400/60% water (v/v/v) at a dose of 1 mg/kg). At 0.0833 h, 0.25 h, 0.5 h, 1 h, 2 h, 4 h, 8 h, 12 h and 24 h after drug administration, blood was serially collected from the fundic venous plexus in EP tubes containing EDTA, centrifuged at 8000 rpm/min for 5 min and then the upper layer of plasma was frozen at −80° C. and stored for LC-MS/MS analysis.
as §1

Setting [5] is: intravenous, 1 mg/kg, read-out: Intravenous injection AUClast.
Where [6] appears, read: oral, 2 mg/kg, read-out: Oral AUClast.

Molecules are shown by their SMILES. Like-named read-outs stand apart in the source and are kept apart here.

`Cn1cc2cc(Nc3nc(=O)n(-c4cncnc4)c(=O)n3Cc3cc(F)c(F)cc3F)c(Cl)cc2n1` [Compound 1, 6-((6-chloro-2-methyl-2H-indazol-5-yl)amino)-3-(pyrimidin-5-yl)-1-(2,4,5-trifluorobenzyl)-1,3,5-triazine-2,4(1H,3H)-dione]: the EC50 stood at 0.195 µM in series [1] and 0.323 µM in series [2].
For `Cn1cc2cc(Nc3nc(=O)n(-c4cc(F)cnc4Cl)c(=O)n3Cc3cc(F)c(F)cc3F)c(Cl)cc2n1` [Compound 2], in that order: 0.098 µM and 0.156 µM.
As for `Cn1cc2cc(Nc3nc(=O)n(-c4cc(Cl)cnc4Cl)c(=O)n3Cc3cc(F)c(F)cc3F)c(Cl)cc2n1` [Compound 3], the EC50 in series [1] worked out at 0.084 µM; in series [2], 0.149 µM.
Turning to `O=c1nc(Nc2cc3cn(CCO)nc3cc2Cl)n(Cc2cc(F)c(F)cc2F)c(=O)n1-c1cncc(Cl)c1` [Compound 4], the results for the EC50 in series [1] and in series [2] were 0.013 µM and 0.018 µM, respectively. In addition, the AUC(0-t) in “in vivo [3]” (iv, 1 mg/kg) came to 2.04 µg·h/mL; in the series “in vivo [3]” (po, 10 mg/kg), 10.8 µg·h/mL; in the series “in vivo [4]” (setting [5]) it was 10.3 µg·h/mL; in the series “in vivo [4]” (setting [6]), 15.2 µg·h/mL.
Take `[2H]C([2H])([2H])n1cc2cc(Nc3nc(=O)n(-c4cncc(Cl)c4)c(=O)n3Cc3cc(F)c(F)cc3F)c(Cl)cc2n1` [Compound 5]: the EC50 worked out at 0.009 µM in series [1] and 0.015 µM in series [2]. In addition, the AUC(0-t) in “in vivo [3]” (iv, 1 mg/kg) was 19 µg·h/mL; in “in vivo [3]” (po, 10 mg/kg) it was 224 µg·h/mL; in the series “in vivo [4]” (setting [5]), 38.4 µg·h/mL; in the series “in vivo [4]” (setting [6]), 60.7 µg·h/mL.
Take `[2H]C([2H])([2H])n1cc2cc(Nc3nc(=O)n(-c4cncc(Cl)c4)c(=O)n3Cc3cc(F)c(F)cc3F)c(Br)cc2n1` [Compound 6]: the EC50 in series [1] is 0.01 µM; in series [2] it was 0.02 µM. Moreover, the AUC(0-t) was 19.5 µg·h/mL in “in vivo [3]” (iv, 1 mg/kg); 205 µg·h/mL in the series “in vivo [3]” (po, 10 mg/kg); 35.7 µg·h/mL in “in vivo [4]” (setting [5]); 59 µg·h/mL in “in vivo [4]” (setting [6]).
